The supplement of paper PMC11451515

Test system: P12-Ichikawa
Experiment: cell viability relative to DMSO control; higher = less cytotoxic
Settings: 48 h
Summary of the method: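 Viability values are per-plate percentages of DMSO wells, with background from cell-free wells. Library compounds in DMSO were pin-dosed, in an 11-point threefold series from 47 μM to 0.79 nM, onto NOMO1 or SEM (500 cells/well) or P12-Ichikawa (1000 cells/well) leukemia cells in 1536-well plates (5 μl). Those cells had been adapted for at least four passages in each medium, and CellTiter-Glo One luminescence was read after 48 h at 37°C.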

[1] = HPLM + 10% dialyzed FBS, 0.000781 µM
[2] = HPLM + 10% dialyzed FBS, 0.00234 µM
[3] = HPLM + 10% dialyzed FBS, 0.00702 µM
[4] = HPLM + 10% dialyzed FBS, 0.0211 µM
[5] = HPLM + 10% dialyzed FBS, 0.0632 µM
[6] = HPLM + 10% dialyzed FBS, 0.19 µM
[7] = HPLM + 10% dialyzed FBS, 0.569 µM
[8] = HPLM + 10% dialyzed FBS, 1.71 µM
[9] = HPLM + 10% dialyzed FBS, 5.12 µM
[10] = HPLM + 10% dialyzed FBS, 15.4 µM
[11] = HPLM + 10% dialyzed FBS, 46.1 µM
[12] = RPMI 5 mM glucose + 10% FBS, 0.000781 µM
[13] = RPMI 5 mM glucose + 10% FBS, 0.00234 µM
[14] = RPMI 5 mM glucose + 10% FBS, 0.00702 µM
[15] = RPMI 5 mM glucose + 10% FBS, 0.0211 µM
[16] = RPMI 5 mM glucose + 10% FBS, 0.0632 µM
[17] = RPMI 5 mM glucose + 10% FBS, 0.19 µM
[18] = RPMI 5 mM glucose + 10% FBS, 0.569 µM
[19] = RPMI 5 mM glucose + 10% FBS, 1.71 µM
[20] = RPMI 5 mM glucose + 10% FBS, 5.12 µM
[21] = RPMI 5 mM glucose + 10% FBS, 15.4 µM
[22] = RPMI 5 mM glucose + 10% FBS, 46.1 µM
[23] = RPMI 5 mM glucose + 10% dialyzed FBS, 0.000781 µM
[24] = RPMI 5 mM glucose + 10% dialyzed FBS, 0.00234 µM
[25] = RPMI 5 mM glucose + 10% dialyzed FBS, 0.00702 µM
[26] = RPMI 5 mM glucose + 10% dialyzed FBS, 0.0211 µM
[27] = RPMI 5 mM glucose + 10% dialyzed FBS, 0.0632 µM
[28] = RPMI 5 mM glucose + 10% dialyzed FBS, 0.19 µM
[29] = RPMI 5 mM glucose + 10% dialyzed FBS, 0.569 µM
[30] = RPMI 5 mM glucose + 10% dialyzed FBS, 1.71 µM
[31] = RPMI 5 mM glucose + 10% dialyzed FBS, 5.12 µM
[32] = RPMI 5 mM glucose + 10% dialyzed FBS, 15.4 µM
[33] = RPMI 5 mM glucose + 10% dialyzed FBS, 46.1 µM

Row | SMILES | cell viability [1] | cell viability [2] | cell viability [3] | cell viability [4] | cell viability [5] | cell viability [6] | cell viability [7] | cell viability [8] | cell viability [9] | cell viability [10] | cell viability [11] | cell viability [12] | cell viability [13] | cell viability [14] | cell viability [15] | cell viability [16] | cell viability [17] | cell viability [18] | cell viability [19] | cell viability [20] | cell viability [21] | cell viability [22] | cell viability [23] | cell viability [24] | cell viability [25] | cell viability [26] | cell viability [27] | cell viability [28] | cell viability [29] | cell viability [30] | cell viability [31] | cell viability [32] | cell viability [33]
1 | C=C1C[C@@]2(O)O[C@@]3(C[C@H]2C(C)C)[C@@H](C)CC[C@@H]13 | 110% | 119% | 112% | 129% | 117% | 123% | 122% | 112% | 117% | 125% | 118% | 113% | 127% | 114% | 126% | 129% | 134% | 119% | 123% | 122% | 128% | 132% | 112% | 109% | 116% | 117% | 122% | 135% | 113% | 125% | 121% | 127% | 128%
2 | CCOc1ccccc1OCCNC(C)Cc1ccc(OC)c([S+](N)(=O)[O-])c1 (configuration not stated) | 88.4% | 104% | 113% | 109% | 103% | 111% | 114% | 105% | 104% | 108% | 107% | 104% | 111% | 111% | 110% | 114% | 106% | 114% | 114% | 117% | 117% | 114% | 82.8% | 103% | 101% | 104% | 103% | 95.8% | 103% | 112% | 110% | 109% | 102%
3 | NC/1=N/C(=O)N(/C=C1)[C@H]2CC[C@@H](CO)O2 | 85% | 95.4% | 93.5% | 101% | 95.9% | 102% | 96.1% | 106% | 95.5% | 104% | 37.6% | 88.3% | 87.6% | 88.6% | 94% | 102% | 91.1% | 99.6% | 92.2% | 94.3% | 90.9% | 41.8% | 59.6% | 87.9% | 88.1% | 90.3% | 85.1% | 90.4% | 96.6% | 93.9% | 98.2% | 90.9% | 30%
4 | CC(C)c1ccc2oc3nc(N)c(C(=O)O)cc3c(=O)c2c1 | 120% | 119% | 119% | 124% | 130% | 132% | 128% | 131% | 125% | 129% | 118% |  |  |  |  |  |  |  |  |  |  |  |  |  |  |  |  |  |  |  |  |  | 
5 | CCOC(=O)c1ncn2c1CN(C)C(=O)c1cc(F)ccc1-2 | 120% | 113% | 113% | 117% | 107% | 107% | 111% | 106% | 72% | 67.7% | 62% | 106% | 113% | 109% | 114% | 116% | 126% | 103% | 106% | 92.2% | 71.7% | 48.9% | 112% | 119% | 107% | 119% | 123% | 113% | 116% | 102% | 84.8% | 74.4% | 46.7%
6 | C[Se]CCC(N)C(=O)O (configuration not stated) | 88.7% | 86.3% | 89.6% | 84.9% | 88.4% | 85.1% | 87.4% | 88.7% | 78.8% | 78.8% | 78.6% | 77.1% | 84.8% | 81.9% | 82.6% | 85.9% | 84.4% | 81.6% | 79.6% | 83.1% | 79% | 75.6% | 85.9% | 77.2% | 83.2% | 85.1% | 88.2% | 85.8% | 74.9% | 76.4% | 80.7% | 78.1% | 79%
7 | COc1ccc2cccc(CCNC(C)=O)c2c1 | 104% | 100% | 102% | 102% | 96% | 103% | 99% | 104% | 102% | 92.7% | 89.6% | 98.3% | 104% | 105% | 109% | 103% | 107% | 104% | 101% | 99.6% | 97.8% | 95.9% | 97.6% | 103% | 110% | 96.8% | 104% | 104% | 97.4% | 93.8% | 94.3% | 98.2% | 89.6%
8 | OC1=C(C=CC=C1)C2=CC=C(C=C2)C3=CSC4=C3C(=C(/C#N)C(=O)N4)/O | 124% | 127% | 124% | 124% | 119% | 119% | 112% | 116% | 114% | 111% | 110% |  |  |  |  |  |  |  |  |  |  |  |  |  |  |  |  |  |  |  |  |  | 
9 | COC1=CC=C(C=C1)C/2=C/OC3=CC(=CC=C3C2=O)O | 122% | 116% | 114% | 112% | 124% | 111% | 115% | 102% | 106% | 104% | 96.7% | 120% | 120% | 115% | 120% | 121% | 112% | 118% | 111% | 113% | 114% | 103% | 116% | 111% | 115% | 118% | 108% | 105% | 117% | 104% | 108% | 96.2% | 101%
10 | O=P(O)(O)C(O)(Cc1cccnc1)P(=O)(O)[O][Na] (configuration not stated) | 88.6% | 81.8% | 99.2% | 11.3% | 95.5% | 94.2% | 105% | 100% | 105% | 105% | 110% | 87.4% | 98.6% | 98.9% | 16.4% | 94.5% | 98.3% | 100% | 107% | 108% | 118% | 112% | 85.3% | 91.3% | 91.2% | 17.4% | 97.7% | 100% | 95.1% | 103% | 100% | 104% | 104%
11 | O=C(c1ccc(F)cc1)C1CCN(CCn2c(=O)[nH]c3ccccc3c2=O)CC1 |  |  |  |  |  |  |  |  |  |  |  |  |  |  |  |  |  |  |  |  |  |  | 121% | 125% | 118% | 120% | 118% | 121% | 140% | 110% | 116% | 112% | 102%
